Results as given in US12404291B2, “Antimicrobial agent” (priority 2019, dated 2025).
Values after ≈ are worked out from the molar mass of the structure shown.

What was measured:
[1] = test system: K. pneumonia biofilm; assay: Biofilm activity profile (MBEC); assay type: cell-based; conditions: Gram-negative biofilm
[2] = test system: P. aeruginosa biofilm; assay: Biofilm activity profile (MBEC); assay type: cell-based; conditions: Gram-negative biofilm
[3] = test system: A. baumannii biofilm; assay: Biofilm activity profile (MBEC); assay type: cell-based; conditions: Gram-negative biofilm
[4] = test system: E. faecalis pathogenic (V583); assay: MIC and MBC determination; assay type: cell-based, Enterococcus faecalis
Protocol: (§1) The bioactivity of these compounds was investigated with respect to the wild type K12-derivative MG1655 and uropathogenic multidrug resistant EC958 ST131 strains of E. coli. Another gram-positive bacteria, ESKAPE bacteria—the pathogenic gastrointestinal strain of Enterococcus faecalis, V583 (ATCC700802)—which is a major opportunistic pathogen (and a leading cause of urinary tract infections) was also tested with respect to the compounds. The minimum inhibitory concentration, MIC, of the four complexes was obtained in both glucose defined minimal media (GDMM) and nutrient rich Mueller-Hinton-II (MH-II) (FIG. 7).
(§2) The same parameters and conditions used above to determine MIC and MBC values with respect to compounds 1^4+ to 4^4+ were employed in order to test the MIC and MBC values of complexes 1^2+ to 4^2+.
(§3) The MIC and MBC values were determined as above.

[5] = test system: E. coli wild type (MG1655); assay: MIC and MBC determination; assay type: cell-based
Protocol: as §1, §2, §3

[6] = physchem; assay type: physicochemical; conditions: pH 7.4, aqueous buffer, kinetic from dmso stock
Protocol: Table 12 illustrates the kinetic solubility of complexes 4^2+ and 4^4+ were tested and compared to a soluble positive control drug (Nicardipine). Both compounds passed the DMPK analysis with an optimal solubility and kinetic stability.

[7] = test system: HPRT; assay: HPRT forward mutation assay; assay type: cell-based; conditions: concentrations above the compounds MIC's
Excerpt: It is therefore confirmed that the compounds are non-mutagenic to mammalian DNA.

With Gentamicin the “Minimum Biofilm Eradication Concentration (MBEC)” value [1] was 18 µM, the “Minimum Biofilm Eradication Concentration (MBEC)” value [2] was 18 µM and the “Minimum Biofilm Eradication Concentration (MBEC)” value [3] was 9 µM.

In the case of CC1(C)S[C@@H]2[C@H](NC(=O)[C@H](N)c3ccccc3)C(=O)N2[C@H]1C(=O)O [ampicillin], the MIC ([4]; Enterococcus faecalis, MH-II) is reported as 0.5 µM (≈ 0.175 µg/mL), the MBC ([4]; Enterococcus faecalis, GDMM) is reported as 6.3 µM (≈ 2.2 µg/mL) and the MIC ([4]; Enterococcus faecalis, GDMM) is reported as 1 µM (≈ 0.349 µg/mL). The MBC ([4]; MH-II) was 6.3 µM (≈ 2.2 µg/mL), the MBC ([5]; Escherichia coli, MG1655, GDMM) was 11.4 µM (≈ 3.98 µg/mL) and the MBC ([5]; MH-II) was 11.4 µM (≈ 3.98 µg/mL).

Work on COC(=O)C1=C(C)NC(C)=C(C(=O)OCCN(C)Cc2ccccc2)C1c1cccc([N+](=O)[O-])c1 (stereo not drawn) [Nicardipine] yielded a solubility [6] of 20.8 µM (≈ 10 µg/mL) and a solubility ([6]; Solubility) of 20.8 µM (≈ 9.97 µg/mL).

Molecule N.N.[Cl][Pt][Cl] [Cisplatin] has a Mutations [7] of 65.5 per 1 × 10^5 viable cells.
